Where a name gives a salt, the structure may show the parent alone.
How the values were obtained:
[1] = tested on: Caenorhabditis elegans N2; experiment: lowest effective concentration for larval growth inhibition (size below effect threshold); higher = less potent; conditions: exposure time 48 h
Procedure, shortened: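 L1 larvae of C. elegans N2 (50 per 96-well) were grown in K-medium with killed bacteria and 1% DMSO, with the chemical at 0.5, 1, 5, 10, 50, 100 or 200 µM, for 48 h at 20°C. Per-worm extinction from the Biosort stood for size and was log-transformed into well means. For each chemical, the lowest effective concentration is the first dose where plate-adjusted mean size falls under the threshold and stays under it at the higher doses, using a threshold of 5.665.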

[2] = tested on: Caenorhabditis elegans N2; experiment: mean nematode size ln(EXT) after 48 h, plate-adjusted (DMSO control set to 6) (ln(EXT), control-adjusted); higher = larger nematodes / less growth inhibition; conditions: exposure time 48 h
Procedure, shortened: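 Each treatment used 4–6 wells of 50 synchronised C. elegans N2 L1 larvae, kept for 48 h at 20°C in K-medium with killed OP50, 1% DMSO and 0.5–200 µM chemical. Debris was excluded by a growth model after the Biosort measured per-worm extinction. Mean size per well came from natural-logged values and was plate-adjusted. That adjustment subtracted the vehicle control mean and then added 6.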

| SMILES | lowest effective concentration [1] | mean nematode size ln(EXT) (ln) ([2]; 0.5 µM) | mean nematode size ln(EXT) (ln) ([2]; 1 µM) | mean nematode size ln(EXT) (ln) ([2]; 5 µM) | mean nematode size ln(EXT) (ln) ([2]; 10 µM) | mean nematode size ln(EXT) (ln) ([2]; 50 µM) | mean nematode size ln(EXT) (ln) ([2]; 100 µM) | mean nematode size ln(EXT) (ln) ([2]; 200 µM) |
| --- | --- | --- | --- | --- | --- | --- | --- | --- |
| OCc1ccccc1 [Benzyl alcohol] | > 200 µM | 5.85 | 5.94 | 5.9 | 5.84 | 5.95 | 5.93 | 5.81 |
| Cc1cc(Cl)ccc1OCC(=O)O [MCPA] | > 200 µM | 5.99 | 6.05 | 6.18 | 6.02 | 6.09 | 6.02 | 5.9 |
| CCC(C)c1ccccc1O (configuration not stated) [2-(Butan-2-yl)phenol] | > 200 µM | 5.9 | 5.85 | 5.89 | 5.94 | 5.86 | 5.82 | 5.7 |
| COc1cc(C=O)ccc1O [4-Hydroxy-3-methoxy-benzaldehyde] | > 200 µM | 5.83 | 5.83 | 5.77 | 5.77 | 5.69 | 5.84 | 5.8 |
| CC(C)CCCCCCOC(=O)CCCCC(=O)OCCCCCCC(C)C [Diisononyl adipate] | > 200 µM | 5.94 | 5.98 | 5.93 | 5.92 | 5.87 | 5.91 | 5.69 |
| CSC(C)(C)/C=N/O [Aldicarb oxime] | > 200 µM | 5.88 | 5.88 | 5.75 | 5.85 | 5.94 | 5.94 | 5.77 |
| OCCCl [2-Chloroethanol] | > 200 µM | 6 | 5.9 | 5.92 | 5.82 | 5.91 | 5.95 | 5.83 |
| CN(C)C(=S)S [Sodium dimethyldithiocarbamate] | > 200 µM | 5.93 | 5.79 | 5.88 | 5.82 | 5.85 | 5.81 | 5.69 |
| COc1cc(-c2ccc(N)c(OC)c2)ccc1N [3,3'-Dimethoxybenzidine dihydrochloride] | > 200 µM | 5.89 | 5.91 | 5.9 | 5.65 | 5.72 | 5.41 | 6.4 |
| Oc1ccc(O)cc1 [Hydroquinone] | > 200 µM | 5.99 | 6.02 | 6.04 | 6.02 | 6.1 | 6.09 | 5.72 |
| O=P(O)(O)CCCl [Ethephon] | > 200 µM | 5.96 | 5.93 | 5.97 | 5.94 | 6.03 | 6.05 | 5.88 |
| O=C(O)CCCOc1ccc(Cl)cc1Cl [2,4-DB] | > 200 µM | 6.17 | 5.97 | 6.06 | 6.03 | 6.13 | 6.21 | 5.85 |
| CCCCN(CCCC)N=O [N-Nitrosodi-N-butylamine] | > 200 µM | 6.12 | 6.07 | 5.93 | 5.97 | 5.99 | 6.08 | 5.95 |
| COCC(C)OCC(C)OCC(C)O (configuration not stated) [Tripropylene glycol monomethyl ether] | > 200 µM | 5.71 | 6.01 | 5.88 | 5.89 | 5.91 | 5.9 | 5.72 |
| CCCCCCCCC(=O)O [Nonanoic acid] | > 200 µM | 5.86 | 5.94 | 5.94 | 5.91 | 5.89 | 5.93 | 5.83 |
| CCCCCCCCCCCCCCCC [Hexadecane] | > 200 µM | 5.93 | 5.9 | 5.89 | 5.89 | 5.86 | 5.83 | 5.72 |
| Cc1ccc(N)c(N)c1 [3,4-Diaminotoluene] | > 200 µM | 5.97 | 5.93 | 5.94 | 5.91 | 5.88 | 5.71 | 5.75 |
| C1CC2OC2CC1C1CO1 (mixture of isomers) [Vinylcyclohexene dioxide, mixture of isomers] | > 200 µM | 5.91 | 5.97 | 5.93 | 5.74 | 5.93 | 5.91 | 5.7 |
| Nc1c(Cl)c(Cl)nc(C(=O)O)c1Cl [Picloram] | > 200 µM | 6.16 | 6.06 | 6.09 | 6.14 | 6.12 | 6.14 | 5.97 |
| Cc1c(-c2cccnc2)c2ccccc2n1CCCCC(=O)O [5-[2-methyl-3-(pyridin-3-yl)-1H-indol-1-yl]pentanoic acid] | > 200 µM | 5.93 | 5.89 | 5.78 | 5.84 | 5.83 | 5.87 | 5.7 |
| NS(=O)(=O)c1cc2c(cc1Cl)NCNS2(=O)=O [Hydrochlorothiazide] | > 200 µM | 5.86 | 5.85 | 5.85 | 5.83 | 5.76 | 5.46 | 5.83 |
| OCCOc1ccccc1 [Phenoxyethanol] | > 200 µM | 5.77 | 5.98 | 6.04 | 6.07 | 6.15 | 5.99 | 5.97 |
| O=C1CCC(N2C(=O)c3ccccc3C2=O)C(=O)N1 (configuration not stated) [Thalidomide] | > 200 µM | 5.98 | 5.95 | 5.98 | 5.97 | 5.97 | 5.85 | 5.97 |
| C/C=C\c1ccc(O)c(OC)c1 [Isoeugenol] | > 200 µM | 5.87 | 5.92 | 5.95 | 6.01 | 5.87 | 5.85 | 5.88 |
| OCCOCCO [Diethylene glycol] | > 200 µM | 5.91 | 5.95 | 5.92 | 5.86 | 5.92 | 5.78 | 5.69 |
| CC(=O)Nc1ccc(O)cc1 [Acetaminophen] | > 200 µM | 6.04 | 6.05 | 6.04 | 6.12 | 6.09 | 6.04 | 5.74 |
| c1ccc2c(c1)Nc1ccccc1S2 [Phenothiazine] | > 200 µM | 6.07 | 6.03 | 5.92 | 5.8 | 5.55 | 5.59 | 5.99 |

| SMILES | lowest effective concentration [1] | mean nematode size ln(EXT) (ln) ([2]; 0.5 µM) | mean nematode size ln(EXT) (ln) ([2]; 1 µM) | mean nematode size ln(EXT) (ln) ([2]; 5 µM) | mean nematode size ln(EXT) (ln) ([2]; 10 µM) | mean nematode size ln(EXT) (ln) ([2]; 50 µM) | mean nematode size ln(EXT) (ln) ([2]; 100 µM) | mean nematode size ln(EXT) (ln) ([2]; 200 µM) |
| --- | --- | --- | --- | --- | --- | --- | --- | --- |
| CCC12COCN1COC2 [5-Ethyl-1-aza-3,7-dioxabicyclo[3.3.0]octane] | > 200 µM | 5.73 | 6.05 | 6.06 | 5.92 | 5.96 | 5.94 | 5.78 |
| CCn1nc(C)c2c1C(=O)NCC(c1ccc(O)cc1)=N2 | > 200 µM | 5.87 | 5.81 | 5.85 | 5.89 | 5.87 | 5.9 | 5.71 |
| CCCCOC(=O)c1ccccc1C(=O)O [Monobutyl phthalate] | > 200 µM | 6.02 | 5.99 | 6.01 | 5.99 | 5.97 | 5.95 | 5.97 |
| CC(=O)C(C)=CC1C(C)=CCCC1(C)C (configuration not stated) | > 200 µM | 5.84 | 5.8 | 5.9 | 5.86 | 5.84 | 5.93 | 5.79 |
| O=C(Oc1ccccc1)c1cccc(C(=O)Oc2ccccc2)c1 [Diphenyl isophthalate] | > 200 µM | 5.87 | 5.89 | 5.87 | 5.87 | 5.94 | 5.94 | 5.7 |
| Cc1ccccc1N [2-Methylbenzenamine] | > 200 µM | 5.79 | 5.87 | 5.76 | 5.89 | 5.91 | 5.73 | 5.89 |
| CN1CSC(=S)N(C)C1 [Dazomet] | > 200 µM | 5.73 | 5.62 | 5.46 | 5.71 | 5.78 | 5.55 | 5.83 |
| c1ccc2ncccc2c1 [Quinoline] | > 200 µM | 5.87 | 5.87 | 5.78 | 5.79 | 5.78 | 5.81 | 5.73 |
| CC(C)C(=O)OCC(C)(C)C(OC(=O)C(C)C)C(C)C (configuration not stated) [2,2,4-Trimethyl-1,3-pentanediol diisobutyrate] | > 200 µM | 5.99 | 6.03 | 5.99 | 5.9 | 5.99 | 5.94 | 5.68 |
| O=C(O)c1cc(Oc2ccc(C(F)(F)F)cc2Cl)ccc1[N+](=O)[O-] [Acifluorfen] | > 200 µM | 5.84 | 5.92 | 5.76 | 6.05 | 6.01 | 6.24 | 5.94 |
| c1ccc2occc2c1 [2,3-Benzofuran] | > 200 µM | 6.06 | 6.1 | 6.03 | 6.13 | 6.02 | 6.03 | 5.78 |
| CN/C(=N\[N+](=O)[O-])NCc1cnc(Cl)s1 [Clothianidin] | > 200 µM | 5.89 | 5.99 | 5.78 | 6.1 | 6.05 | 6.02 | 5.96 |
| Nc1cnn(-c2ccccc2)c(=O)c1Cl [Chloridazon] | > 200 µM | 5.51 | 5.47 | 5.3 | 6.01 | 5.44 | 5.44 | 5.89 |
| CC(C)(C)c1ccccc1 [tert-Butylbenzene] | > 200 µM | 5.94 | 6.02 | 6.07 | 6.05 | 6.22 | 6.12 | 5.79 |
| COP(=O)(NC(C)=O)SC (configuration not stated) [Acephate] | > 200 µM | 5.69 | 5.74 | 5.76 | 5.69 | 5.85 | 5.77 | 5.99 |
| O=[N+]([O-])C(CO)(CO)CO [Tris(hydroxymethyl)nitromethane] | > 200 µM | 5.91 | 5.9 | 5.92 | 5.75 | 5.92 | 5.89 | 5.75 |
| CCCCC(CC)COC(=O)CCCCCCCC(=O)OCC(CC)CCCC (configuration not stated) [Azelaic acid di(2-ethylhexyl) ester] | > 200 µM | 5.73 | 5.62 | 5.69 | 5.67 | 5.23 | 5.44 | 5.67 |
| Nc1ccc(C(=O)O)cc1 [4-Aminobenzoic acid] | > 200 µM | 5.84 | 5.87 | 5.81 | 5.49 | 5.83 | 5.85 | 5.72 |
| COCCOCCO [Diethylene glycol monomethyl ether] | > 200 µM | 5.87 | 5.91 | 5.93 | 5.85 | 5.82 | 5.94 | 5.68 |
| CCCCOCCOCCO [2-(2-Butoxyethoxy)ethanol] | > 200 µM | 5.78 | 6 | 6.21 | 5.86 | 5.95 | 5.74 | 5.96 |
| COC(=O)CSc1cc(/N=c2\sc(=O)n3n2CCCC3)c(F)cc1Cl [Fluthiacet-methyl] | > 200 µM | 5.92 | 5.93 | 5.96 | 5.96 | 5.98 | 5.95 | 5.92 |
| c1cc(-c2ccncc2)ccn1 [4,4'-bipyridine] | > 200 µM | 5.97 | 5.91 | 5.89 | 5.94 | 5.95 | 6.01 | 5.85 |
| Cc1cccc([N+](=O)[O-])c1 [3-Nitrotoluene] | > 200 µM | 5.78 | 5.89 | 5.82 | 5.77 | 5.93 | 5.88 | 5.85 |
| CCCCCCOCCO [Ethylene glycol monohexyl ether] | > 200 µM | 5.81 | 6.03 | 5.9 | 5.93 | 5.72 | 5.89 | 5.77 |
| CN(C)C(=O)NC1(c2ccccc2)CCN(CC[C@@]2(c3ccc(F)c(F)c3)CN(C(=O)c3ccccc3)CCO2)CC1 | > 200 µM | 5.89 | 5.86 | 5.86 | 5.8 | 5.9 | 5.92 | 5.68 |
| CCOC(=O)CC(O)(CC(=O)OCC)C(=O)OCC [Triethyl citrate] | > 200 µM | 6.01 | 5.99 | 6.04 | 6.03 | 6.03 | 6.08 | 5.71 |
| CCN(CC)C(=O)c1cccc(C)c1 [Diethyltoluamide] | > 200 µM | 5.86 | 5.86 | 5.91 | 6.14 | 6 | 5.91 | 5.85 |

Reference: the supplement of paper PMC4858399
